US12527830B2, “Method for treating and preventing ulcerative colitis and method for DAI reduction” (BEIJING WEHAND-BIO PHARMACEUTICAL CO., LTD, priority 2022, dated 2026)

Test system: UC model mice
Assay: 3% DSS-induced ulcerative colitis model in mice: colon length, body weight, Disease Activity Index (DAI)
Type: in vivo
Details: positive drug group, 500 mg/kg/d by gavage, 3% DSS mice
Method: Mice aged 6-8 weeks were adaptively kept in an animal house for 3 days. After weighing, they were randomly divided into 8 groups (counted as Day 0), with 5-6 mice in each group. Experimental grouping was as follows: group 1, normal control; group 2, model; group 3, positive control; and groups 4-8, SZ-A with different administration doses, respectively. 3% DSS was formulated as follows: 3 g of DSS (Dextran Sulfate Sodium Salt) was dissolved in 100 mL of sterile water; The mulberry twig extract as prepared in Preparative Example 1 was formulated at different concentrations and dissolved in 1% CMC solution; Drug as positive control: Sulfasalazine Enteric-Coated Tablets (NMPN H31020557). On the day when grouping was done, the mice in group 8, SZ-A-5 (pretreatment) group, were administered with a mulberry twig extract by oral gavage (see the following table for dosages) once a day. All groups are normally available to food and water. […] After 5 days from the start of modelling, the access to 3% DSS was stopped, and all groups had normal drinking water instead, with the administration done normally. The mice were administered continuously and observed for 10 days, and euthanized by cervical dislocation. The colons of the mice were removed by dissection, and the lengths of the colons were measured and photographed. During the administration, the weights of the mice in each group were measured. During the modelling and administration, stool texture and blood in stool of the mice were monitored daily, and Disease Activity Index, DAI, for the mice was scored according to Table 2 below. [table] [table] • Note: DAI=Score for Weight Loss+Score for Stool Texture+Score for Fecal Occult Blood; Normal Stool: Shaped Stool; Mushy Stool: Pasty, Semi-Shaped Stool without Adhering to Anus; Liquid Stool: Thin, Watery Stool that may Adhere to Anus. Disease Activity Index (DAI) scores for mice were compared using the mulberry twig extracts in each preparative example with reference to the experimental steps in sections 1.1-1.3 above. […]

## O=C(O)c1cc(N=Nc2ccc(S(=O)(=O)Nc3ccccn3)cc2)ccc1O [positive drug, 5-[p-(2-pyridylsulfamoyl)phenylazo]salicylic acid]
FIG. 1-2
  inhibition of colonic atrophy (colon length) compared with model group: significantly inhibited colonic atrophy
FIG. 3
  inhibition of weight loss compared with model group: inhibit weight loss
FIG. 4
  reduction of Disease Activity Index, DAI, compared with model group: reduce Disease Activity Index
